Consider one compound from patent US6756209B1, “7-Alkoxycoumarins as CYP2C9 substrates and activity assay” (SmithKline Beecham p.l.c., priority 1998, dated 2004).

Each structure is given as a SMILES string.

Usually melting point stands for the temperature of the solid-liquid transition. With `COc1ccc2c(C(F)(F)F)c(CC(=O)O)c(=O)oc2c1`, the melting point lay within 198.5 to 200 °C.
